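Each compound was tested at five concentrations against cells in 96-well plates for 48 hours. The concentration for full growth arrest is given as TGI.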

Assay in all cases: growth of human tumour cells (NCI), 48 h
For assay [1], the system named is CAKI-1 renal.
For assay [2], the system named is MALME-3M melanoma.
Assay [3] concerns NCI-H460 lung.
Assay [4] deals with DU-145 prostate.
Assay [5] deals with SW-620 colon.
For assay [6], the system named is 786-0 renal.
In assay [7] the test system is PC-3 prostate.
The test system of assay [8] is U251 CNS.
Assay [9] concerns SR leukemia.
Assay [10] relates to UACC-257 melanoma.
For assay [11], the system named is NCI-H226 lung.
Assay [12] relates to HCT-116 colon.

`NC(N)=NS(=O)(=O)c1ccc(Nc2c3ccccc3nc3c(C(=O)NC(CO)(CO)CO)cccc23)cc1`: the TGI was above 100 µM in assay [1]; 45.3 µM in assay [2]; 16.6 µM in assay [3]; above 100 µM in assay [4]; above 100 µM in assay [5]; 46.2 µM in assay [6]. The TGI in assay [7], in [8], in assay [9] and in assay [10] was above 100 µM in each case.
In the case of `O=c1c2ccccc2c2c1c1c3ccccc3c(=O)c1c1c3ccccc3c(=O)c21`, the TGI in [11], in assay [1], in [2], in [3], in assay [4] and in [5] was above 100 µM throughout. Moreover, the TGI in assay [6], in assay [7], in assay [12], in assay [8], in assay [9] and in [10] was above 100 µM throughout.
For the molecule `CC(C)/C(Cl)=N\OC(=O)Nc1ccc(F)c([N+](=O)[O-])c1`, the TGI in assay [11] was determined as 50.1 µM; in assay [1], 3.27 µM; in assay [2], 3 µM; in [3], 7.89 µM; in assay [4] it was 32.8 µM; in assay [5] it was 7.56 µM. Also, the TGI came to 7.87 µM in assay [6]; 32.2 µM in assay [7]; 11.7 µM in assay [12]; 31.1 µM in [8]; 26.3 µM in assay [9]; 33.5 µM in assay [10].
`O=C1N(CN2CCOCC2)CN(CN2CCOCC2)C(=O)N1Cc1ccccc1`: the TGI in assay [11] is above 100 µM; in [1], 92.8 µM; in assay [2], 29.5 µM; in assay [3] it was above 100 µM; in [4], 63.9 µM; in [5] it was 54.9 µM. The TGI in [6] is 71.8 µM; in assay [7], above 100 µM; in assay [12], 54.4 µM; in [8] it was 56.8 µM; in assay [9] it was 40.7 µM; in assay [10], 48.6 µM.
For the molecule `COP(=O)(OC)C(O)/C=C(\Cl)c1ccc(Cl)cc1` (centres undefined), the TGI in assay [11], in assay [1], in [2], in assay [3], in [4] and in [5] was above 100 µM in each case. Also, the TGI is 39.3 µM in [6]; above 100 µM in [7]; 36.2 µM in assay [12]; above 100 µM in assay [8]; 59.1 µM in assay [9]; 84.6 µM in assay [10].
As for `CC(=O)N1C(C(=O)NNc2ccccc2)CSC1c1ccccc1` (centres undefined), the TGI in assay [11], in assay [1], in assay [2], in assay [3], in assay [4] and in assay [5] was above 100 µM in each case. Besides, the TGI in assay [6], in assay [7], in assay [12], in assay [8], in assay [9] and in assay [10] was above 100 µM throughout.
For the molecule `COc1ccccc1-c1nc2ccccc2c(=O)[nH]1`, the TGI in assay [11], in assay [1], in assay [2], in assay [3], in assay [4] and in [5] was above 100 µM in each case. The TGI in [6], in assay [7], in [12], in assay [8], in [9] and in assay [10] was above 100 µM throughout.
Turning to `O=C1NC(N/N=C/c2ccccc2)=N/C1=C\c1cccs1`, the TGI in assay [11] was 25.8 µM; in [1] it was 33.3 µM; in [2], 27.8 µM; in assay [3] it was above 100 µM; in assay [4] it was 56.5 µM; in [5] it was above 47.5 µM. The TGI in assay [6] was 44.6 µM; in assay [7] it was 26.7 µM; in [12], 36.3 µM; in assay [8] it was 32.8 µM; in assay [9], above 100 µM; in [10], above 100 µM.
As for `CCn1c(-c2ccccc2)nc2c1C(=O)c1ccccc1C2=O`, the TGI in [11] was 71.6 µM; in [2], 21.7 µM; in assay [3], 46.5 µM; in [4], above 100 µM; in [5], above 100 µM; in assay [6] it was above 100 µM. Further, the TGI is 64.3 µM in assay [7], 63.6 µM in [12], above 100 µM in assay [8] and above 100 µM in assay [9].
For `COc1cc(S(=O)(=O)Nc2ccc(-c3csc(N4C(=O)C(C)SC4c4ccccc4O)n3)cc2)ccc1Cl` (centres undefined), the TGI in assay [11] was above 100 µM; in assay [1] it was above 100 µM; in assay [2], 35.5 µM; in assay [4] it was above 100 µM; in assay [5], above 100 µM; in assay [6] it was above 100 µM. Further, the TGI in assay [7], in assay [12] and in [9] was above 100 µM throughout.
For the molecule `COc1ccc(N=Nc2c(C)c(C#N)c(=S)n(C3OC(COC(C)=O)C(OC(C)=O)C(OC(C)=O)C3OC(C)=O)c2-c2ccccc2)cc1` (centres undefined), the TGI is 21.3 µM in assay [1]; 29.9 µM in assay [2]; above 100 µM in [3]; 19.6 µM in assay [4]; 11.1 µM in [5]; 10.4 µM in assay [6]. For the same molecule, the TGI in assay [7] was 21.3 µM; in [12], 15.6 µM; in assay [8], 22.6 µM; in assay [9] it was above 100 µM; in assay [10], 75.8 µM.
In the case of `CCCN1CN(c2ccccc2)C2(CCN(CCCC(=O)c3ccc(F)cc3)CC2)C1=O`, the TGI in assay [11] was found to be 22.3 µM; in [1] it was 41.1 µM; in [2], 30.1 µM; in assay [3], 26.9 µM; in [4], 11.1 µM; in assay [5] it was 20.4 µM. For the same molecule, the TGI was 17.3 µM in assay [6]; 27.6 µM in [7]; 8.75 µM in [12]; 30.7 µM in assay [8]; 41.4 µM in [9]; 6.09 µM in assay [10].
Take `c1ccc2c(c1)CCN1CCc3c([nH]c4ccccc34)C21` (centres undefined): the TGI in assay [11] is 97.5 µM; in [1], above 100 µM; in [2], 38.3 µM; in assay [3], above 100 µM; in assay [4], above 100 µM; in assay [5] it was above 100 µM. Besides, the TGI in assay [6] was above 100 µM; in [7], 98.5 µM; in [12] it was 76.5 µM; in assay [8] it was above 100 µM; in assay [9] it was 56.3 µM; in [10], 91.6 µM.
`Cc1nc(N)c(N2CCN(Cc3ccccc3)CC2)c(=O)[nH]1`: the TGI in assay [11], in assay [2], in [3], in assay [4], in assay [5] and in assay [6] was above 100 µM throughout. The TGI in [7], in assay [12], in [8], in assay [9] and in assay [10] was above 100 µM each time.
Regarding `CC(=O)O[C@H]1[C@H](OC(C)=O)[C@@H](CN=[N+]=[N-])OCO[C@@H]1CN=[N+]=[N-]`, the TGI in [11], in assay [2], in assay [3], in [4], in assay [5] and in assay [6] was above 100 µM each time. For the same molecule, the TGI in assay [7], in [12], in assay [8], in assay [9] and in assay [10] was above 100 µM throughout.
`Cc1cc(N(CCC#N)CCC#N)ccc1/C(N=Nc1ccccc1)=N\NC(=O)c1ccccc1`: the TGI in assay [11] is above 100 µM; in [1], 72.6 µM; in assay [2] it was above 100 µM; in assay [3] it was 91 µM; in assay [4] it was above 100 µM; in assay [6], 76.6 µM. Moreover, the TGI in assay [7] was above 100 µM; in assay [12], above 100 µM; in [8] it was above 100 µM; in assay [9], 71.6 µM; in assay [10] it was above 100 µM.
Consider `c1ccc(/N=N\Nc2ccc(-c3nc4ccccc4o3)cc2)nc1`, for which the TGI in [2] was above 100 µM; in [3], above 100 µM; in [4], above 100 µM; in [5], 42.1 µM; in [6], above 100 µM; in assay [7], above 100 µM. Besides, the TGI in assay [12] was above 100 µM; in assay [8] it was above 100 µM; in [9], above 100 µM; in assay [10] it was 83 µM.
`c1cc2cc(c1)CN1CCNCCN(CCNCC1)Cc1cccc(c1)CN1CCNCCN(CCNCC1)C2`: the TGI in [2], in assay [3], in [4], in assay [5], in assay [6] and in [7] was above 100 µM in each case. Besides, the TGI in [12], in assay [8], in assay [9] and in assay [10] was above 100 µM in each case.
Regarding `CC(=O)OCC1OC(n2c3c(cc(C#N)c2=S)CCCCCC3)C(OC(C)=O)C(OC(C)=O)C1OC(C)=O` (centres undefined), the TGI in [11], in assay [2], in assay [3], in [4], in assay [6] and in [7] was above 100 µM each time. Besides, the TGI in assay [12], in assay [8], in assay [9] and in assay [10] was above 100 µM throughout.
As for `C[N+](C)(C)C1(C(=O)[O-])CC1`, the TGI in assay [11], in [2], in assay [3], in assay [4], in assay [5] and in [6] was above 100 µM each time. In addition, the TGI in [7], in assay [12], in assay [8], in assay [9] and in assay [10] was above 100 µM throughout.
As to `O=c1[nH]c(=O)n(C2OC(CO)C(O)C2O)cc1OCCc1ccccc1` (centres undefined), the TGI in [11], in assay [1], in assay [2], in assay [3], in [4] and in assay [5] was above 100 µM throughout. In addition, the TGI in assay [6], in [7], in assay [12], in assay [9] and in assay [10] was above 100 µM in each case.
As to `COc1ccc(C(=O)/C=C/c2ccc(OCC(=O)O)cc2)cc1`, the TGI in assay [1], in [2], in assay [4], in assay [5], in assay [6] and in assay [7] was above 100 µM throughout. The TGI in assay [12] is above 100 µM; in assay [8] it was 79.9 µM; in assay [9], above 100 µM.
For the molecule `O=c1c[n+](-c2ccccc2)[nH]o1`, the TGI in assay [1], in assay [2], in assay [3], in assay [4], in [5] and in assay [6] was above 100 µM in each case. The TGI in [7], in assay [12], in [8], in assay [9] and in assay [10] was above 100 µM each time.
Regarding `COc1cc(C=Nc2ccc(S(N)(=O)=O)cc2)cc(OC)c1`, the TGI in assay [11], in [1], in assay [2], in assay [3], in assay [4] and in [6] was above 50 µM in each case. The TGI in assay [7], in assay [12], in assay [8], in assay [9] and in assay [10] was above 50 µM in each case.

These data come from PubChem BioAssay (NCI).
